Earlier results on two compounds are cited in patent US7601870B2, “Substituted aniline derivatives” (priority 2004, dated 2009).

For series [1], the system named is animal models of ethanol withdrawal syndrome. The settings on record: in vivo.
Series [2] relates to electrically induced seizures, seizures induced chemically by pentylenetetrazole, picrotoxin and NMDA, DBA/2 mouse. The settings on record: oral and intraperitoneal administration in rats and mice.
Series [3] concerns seizures in epileptic patients. The settings on record: clinical trials.
Series [4] relates to K(+) current in neuronal cells.
The subject of series [5] is amygdala kindling model of complex partial seizures. Conditions: in vivo.
In series [6] the test system is hippocampal kindling. Conditions: rat.
For series [7], the system named is kainic acid-induced status epilepticus. Conditions: rat.
Series [8] deals with animal models of anxiety-like behaviour. The settings on record: in vivo.
Series [9] has as its system animal models of neuropathic pain. Conditions: in vivo.

Regarding `NCC1(CC(=O)O)CCCCC1` [gabapentin], the “effect in ethanol withdrawal syndrome models” value in series [1] is “very effective”.
Turning to `CCOC(=O)Nc1ccc(NCc2ccc(F)cc2)cc1N` [Retigabine, N-(2-amino-4-(4-fluorobenzylamino)-phenyl) carbamic acid ethyl ester], the anticonvulsant activity result in [2] is given as “active”. Further, in [3], the incidence of seizures entry is given as “effectiveness in reducing the incidence of seizures”. Besides, the “activation of K(+) current” value in series [4] is recorded as “activate a K(+) current”. The “activity in amygdala kindling model” value in series [5] was “active”. In addition, the “progression of hippocampal kindling” value in series [6] is listed as “delay the progression of hippocampal kindling”. The “limbic neurodegeneration and markers of apoptosis” value in series [7] was “prevent limbic neurodegeneration and the expression of markers of apoptosis”. Further, in series [8], the “activity in anxiety-like behaviour models” value is on record as “active”. In series [9], the “effect in neuropathic pain models” value is listed as “beneficial”.
